Laboratory results as given in ChEMBL document CHEMBL1127657, “Haloperidol-based irreversible inhibitors of the HIV-1 and HIV-2 proteases” (J Med Chem, 1994).

Legend:
[1] = biological target: Human immunodeficiency virus type 1 protease (Human immunodeficiency virus 1, UniProt Q72874); assay: In vitro inhibition of recombinant HIV-1 protease expressed in Escherichia coli strain D1210
[2] = biological target: T1, Human rhinovirus A protease (Human rhinovirus sp.) (UniProt Q4U254); details: Human immunodeficiency virus 2
T1 sequence (whole entry): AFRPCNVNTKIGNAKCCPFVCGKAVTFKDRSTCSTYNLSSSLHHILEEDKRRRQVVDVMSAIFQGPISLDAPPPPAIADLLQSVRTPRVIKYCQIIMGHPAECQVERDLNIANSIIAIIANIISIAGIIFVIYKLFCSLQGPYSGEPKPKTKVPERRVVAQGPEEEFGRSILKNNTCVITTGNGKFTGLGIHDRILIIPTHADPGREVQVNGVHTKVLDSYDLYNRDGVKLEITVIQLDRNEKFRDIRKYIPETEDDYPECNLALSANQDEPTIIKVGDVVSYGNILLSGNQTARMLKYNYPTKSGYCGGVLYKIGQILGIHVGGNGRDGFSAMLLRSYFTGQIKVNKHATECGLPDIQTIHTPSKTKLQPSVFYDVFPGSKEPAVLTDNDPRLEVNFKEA

[3] = biological target: Human immunodeficiency virus type 1 protease (Human immunodeficiency virus 1) (UniProt Q72874)
Description: The irreversibility of the inactivation reaction of HIV-1 PR was assessed

SMILES | IC50 [1] [µM] | K inact [2] [min⁻¹] | K inact [3] [min⁻¹]
OC1(C#CC2(c3ccccc3)CO2)CCN(Cc2ccccc2)CC1 (centres undefined) | 725 | – | –
O=C(C#CCN1CCC(O)(c2ccc(Cl)cc2)CC1)c1ccccc1 | 20 | – | –
O=C(C#CCN1CCC(O)(c2ccc(Cl)cc2)CC1)c1ccc(-c2ccccc2)cc1 | 100 | – | –
O=C(/C=C/CN1CCC(O)(c2ccc(Cl)cc2)CC1)c1ccc(F)cc1 | 80 | – | –
O=C(C#CCN1CCC(O)(c2ccc(Cl)cc2)CC1)c1cccc(-c2ccccc2)c1 | 63 | – | –
O=C(/C=C/C[N+]1([O-])CCC(O)(c2ccc(Cl)cc2)CC1)c1ccc(F)cc1 (centres undefined) | 30 | 4.33 | 86
OC1(c2ccc(Cl)cc2)CCN(CC#CC2(c3ccccc3)CO2)CC1 (centres undefined) | 150 | – | –
